In patent publication US8501755B2, “Tetrahydropyridothienopyrimidine compounds and methods of use thereof” (Bayer Intellectual Property GmbH, priority 2006, dated 2013):

Assays:
Assay type in all cases: cell-based
H1975 cells = test: In vitro tumor cell proliferation assay (Cell Titer-Glo) in H1975 cells; conditions: NCI-H1975; H1975 human NSCLC expressing mutant HER1 (L858R,T790M); 72 hours exposure; read-out: IC50, activities in H 1975 cell lines
How it was run: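 After 72 h compound exposure at 37° C (top 10 uM down to 64 pM, 0.1% DMSO), viability of EGFR L858R/T790M-mutant H1975 cells was read as ATP luminescence.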

A431 cells = test: In vitro tumor cell proliferation assay (Cell Titer-Glo) in A431 cells; conditions: Homo sapiens, A-431, 72 h, A431 human epidermoid carcinoma overexpressing HER1; 72 hours exposure; read-out: IC50, activities in A431 cell lines
How it was run: (§1)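 Viability after 72 h drug exposure at 37 °C was read as CellTiter-Glo ATP luminescence, giving IC50. Cells (2.5×10^3/well, RPMI + 10% FBS) were compound-treated one day post-seeding, 0.1% DMSO final: A431 overexpresses HER1, N87 overexpresses HER2 and HER1.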

N87 = test: In vitro tumor cell proliferation assay (Cell Titer-Glo) in N87 cells; conditions: N87 human gastric carcinoma overexpressing HER2 and HER1; 72 hours exposure; read-out: IC50, activities in N87 cell lines
How it was run: as §1

SMILES	IC50 (H1975 cells)	IC50 (A431 cells)	IC50 (N87)
CN(C)C/C=C/C(=O)N1CCc2c(sc3ncnc(Nc4ccc(F)cc4F)c23)C1 [Example 162, N-(2,4-difluorophenyl)-7-[(2E)-4-(dimethylamino)but-enoyl]-5,6,7,8-tetrahydropyrido [4′,3′:4,5]thieno[2,3-d]pyrimidin-4-amine]	1000 to 10000 nM	200 to 1000 nM	< 200 nM
CN(C)C/C=C/C(=O)N1CCc2c(sc3ncnc(Nc4ccc(Cl)cc4)c23)C1 [Example 163, N-(4-chlorophenyl)-7-[(2E)-4-(dimethylamino)but-2-enoyl]-5,6,7,8-tetrahydropyrido [4′,3′:4,5]thieno[2,3-d]pyrimidin-4-amine]	200 to 1000 nM	200 to 1000 nM	< 200 nM
CN(C)C/C=C/C(=O)N1CCc2c(sc3ncnc(Nc4cccc(Cl)c4)c23)C1 [Example 164, N-(3-chlorophenyl)-7-[(2E)-4-(dimethylamino)but-2-enoyl]-5,6,7,8-tetrahydropyrido [4′,3′:4,5]thieno[2,3-d]pyrimidin-4-amine]	200 to 1000 nM	200 to 1000 nM	< 200 nM
CN(C)C/C=C/C(=O)N1CCc2c(sc3ncnc(Nc4ccc(Cl)c(Cl)c4)c23)C1 [Example 165, N-(3,4-dichlorophenyl)-7-{(2E)-4-[dimethylamino]but-2-enoyl}-5,6,7,8-tetrahydropyrido[4′,3′:4,5]thieno[2,3-d]pyrimidin-4-amine]	< 200 nM	200 to 1000 nM	< 200 nM
Cc1ccc(F)cc1Nc1ncnc2sc3c(c12)CCN(C(=O)/C=C/CN(C)C)C3 [Example 166, 7-[(2E)-4-(dimethylamino)but-2-enoyl]-N-(5-fluoro-2-methylphenyl)-5,6,7,8-tetrahydropyrido [4′,3′:4,5]thieno[2,3-d]pyrimidin-4-amine]	1000 to 10000 nM	1000 to 10000 nM	200 to 5000 nM
Cc1cc(C)cc(Nc2ncnc3sc4c(c23)CCN(C(=O)/C=C/CN(C)C)C4)c1 [Example 167, 7-[(2E)-4-(dimethylamino)but-2-enoyl]-N-(3,5-dimethylphenyl)-5,6,7,8-tetrahydropyrido [4′,3′:4,5]thieno[2,3-d]pyrimidin-4-amine]	1000 to 10000 nM	1000 to 10000 nM	< 200 nM
CCOc1cccc(Nc2ncnc3sc4c(c23)CCN(C(=O)/C=C/CN(C)C)C4)c1 [Example 168, 7-[(2E)-4-(dimethylamino)but-2-enoyl]-N-(3-ethoxyphenyl)-5,6,7,8-tetrahydropyrido [4′,3′:4,5]thieno[2,3-d]pyrimidin-4-amine]	1000 to 10000 nM	1000 to 10000 nM	< 200 nM
CN(C)C/C=C/C(=O)N1CCc2c(sc3ncnc(NCc4ccccc4)c23)C1 [Example 169, N-benzyl-7-[(2E)-4-(dimethylamino)but-2-enoyl]-5,6,7,8-tetrahydropyrido [4′,3′:4,5]thieno[2,3-d]pyrimidin-4-amine]	1000 to 10000 nM	1000 to 10000 nM	< 200 nM
CN(C)C/C=C/C(=O)N1CCc2c(sc3ncnc(Nc4ccc(Br)c(Cl)c4)c23)C1 [Example 172, N-(4-bromo-3-chlorophenyl)-7-[(2E)-4-(dimethylamino)but-2-enoyl]-5,6,7,8-tetrahydropyrido [4′,3′:4,5]thieno[2,3-d]pyrimidin-4-amine]	200 to 1000 nM	200 to 1000 nM	< 200 nM
CN(C)C/C=C/C(=O)N1CCc2c(sc3ncnc(Nc4ccc(C#N)c(Cl)c4)c23)C1 [Example 173, 2-chloro-4-({7-[(2E)-4-(dimethylamino)but-2-enoyl]-5,6,7,8-tetrahydropyrido [4′,3′:4,5]thieno[2,3-d]pyrimidin-4-yl}amino)benzonitrile]	1000 to 10000 nM	1000 to 10000 nM	< 200 nM
CN(C)C/C=C/C(=O)N1CCc2c(sc3ncnc(Nc4cc(Cl)cc(Cl)c4)c23)C1 [Example 174, N-(3,5-dichlorophenyl)-7-[(2E)-4-(dimethylamino)but-2-enoyl]-5,6,7,8-tetrahydropyrido [4′,3′:4,5]thieno[2,3-d]pyrimidin-4-amine]	1000 to 10000 nM	1000 to 10000 nM	< 200 nM
